Results published in patent publication US9175011B2, “Morpholino substituted urea or carbamate derivatives as MTOR inhibitors” (CELLZOME LIMITED, priority 2011, dated 2015).

Assays:
[1] = molecular target: T1, mTOR (Homo sapiens, UniProt P42345); experiment: mTOR kinobeads assay (Jurkat cell lysate, dot blot detection); type: binding; conditions: read-out: Inhibition values (IC50) mTor
T1 construct: Jurkat cells were homogenized in a Potter S homogenizer in lysis buffer; endogenous in cells; host or cells: Jurkat, clone E6-1 (ATCC TIB-152) lysate
Method in brief: (§1)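 Readout by specific-antibody dot blot of kinase pulled down from Jurkat lysate on mixed immobilized-ligand beads. Compounds competed for binding over three hours in a cold room; IC50 taken from dose-response curves.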

[2] = molecular target: T2, PI3K alpha (PI3Kα) (Homo sapiens, UniProt P42336); experiment: kinobeads assay, PI3K alpha; type: binding; conditions: Jurkat cell lysate, read-out: Inhibition values (IC50) PI3Ka
T2 construct: Jurkat cells were homogenized in a Potter S homogenizer in lysis buffer; endogenous in cells; host or cells: Jurkat, clone E6-1 (ATCC TIB-152) lysate
Method in brief: as §1

[3] = molecular target: T3, PI3K beta (PI3Kb) (Homo sapiens, UniProt P42338); experiment: kinobeads assay, PI3K beta; type: binding; conditions: Jurkat cell lysate, read-out: Inhibition values (IC50) PI3Kb
T3 construct: Jurkat cells were homogenized in a Potter S homogenizer in lysis buffer; endogenous in cells; host or cells: Jurkat, clone E6-1 (ATCC TIB-152) lysate
Method in brief: as §1

[4] = molecular target: T4, PI3K gamma (PI3Kg) (Homo sapiens, UniProt P48736); experiment: kinobeads assay, PI3K gamma; type: binding; conditions: Jurkat cell lysate, read-out: Inhibition values (IC50) PI3Kg
T4 construct: Jurkat cells were homogenized in a Potter S homogenizer in lysis buffer; endogenous in cells; host or cells: Jurkat, clone E6-1 (ATCC TIB-152) lysate
Method in brief: as §1

[5] = molecular target: T5, PI3K delta (PI3Kd) (Homo sapiens, UniProt O00329); experiment: kinobeads assay, PI3K delta; type: binding; conditions: Jurkat cell lysate, read-out: Inhibition values (IC50) PI3Kd
T5 construct: Jurkat cells were homogenized in a Potter S homogenizer in lysis buffer; endogenous in cells; host or cells: Jurkat, clone E6-1 (ATCC TIB-152) lysate
Method in brief: as §1

[6] = molecular target: T6, DNA-dependent protein kinase (DNA-PK) (Homo sapiens, UniProt P78527); experiment: kinobeads assay, DNA-PK; type: binding; conditions: Jurkat cell lysate, read-out: Inhibition values (IC50) DNA-PK
T6 construct: Jurkat cells were homogenized in a Potter S homogenizer in lysis buffer; endogenous in cells; host or cells: Jurkat, clone E6-1 (ATCC TIB-152) lysate
Method in brief: as §1

[7] = tested on: S6RP serine-240/244 phosphorylation; experiment: In vitro phospho-S6 cellular assay (HEK293T/17); type: cell-based; conditions: Homo sapiens; HEK293T/17 cells, 2 hours, pS6RP Ser240/244; read-out: Inhibition values (IC50) pS6
Method in brief: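 HEK293T/17 cells in DMEM with 2% FCS were exposed to 8 compound concentrations (0.1% DMSO) for 2 h at 37 °C, then lysed. pS6RP Ser240/244 or pAkt Ser473 in the lysates was quantified by MSD sandwich electrochemiluminescence. IC50 was obtained by sigmoidal variable-slope nonlinear regression.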

[8] = tested on: Akt serine-473 phosphorylation; experiment: In vitro phospho-Akt cellular assay (HEK293T/17); type: cell-based; conditions: Homo sapiens; HEK293T/17 cells, 2 hours, pAkt Ser 473; read-out: Inhibition values (IC50) pAkt
Description: Activation of mTOR signaling results in phosphorylation of several downstream targets. In cells, mTOR exists in two different protein complexes. The mTOR Complex-1 (mTORC1) phosphorylates and activates S6 Kinase 1 (S6K1) and S6 Kinase 2 (S6K2) (also known as p70S6K) which then phosphorylate S6 Ribosomal Protein (S6RP) (also known as RPS6)3. S6RP is phosphorylated on serine 235, senile 236, serine 240 and serine 244 by both pS6K1 and pS6K2. The mTOR Complex-2 (mTORC2) phosphorylates AKT on serine 473 which activates the AKT signaling pathway.
The assay measures a test compound's inhibition of S6RP serine-240/244 phosphorylation and inhibition of Akt serine-473 phosphorylation in human embryonic kidney derived HEK293T/17 cells (ATCC CRL-11268).
The HEK293T/17 cell line is maintained in DMEM media (Invitrogen catalogue number 41965-039) supplemented with 10% FCS at 37° C. in a 5% CO2 humidified incubator. Cells are seeded in 96-well plates at 40,000 cells/well (pS6RP S240/244 assay) or 80,000 cells/well (pAkt 5473 assay) in 90 μl growth media (DMEM, 2% FCS). Plates are incubated for 1 hour in a humidified incubator to allow the cells to adhere. Cells are treated with 8 concentrations of test compounds or DMSO alone for controls (final DMSO concentration 0.1%) and incubated at 37° C. for 2 hours. Then 20 μl of 5× concentrated lysis buffer (750 mM NaCl, 100 mM Tris pH7.4, 5 mM ADTA, 5 mM EGTA, 5% Triton X-100) is added, plates are sealed and incubated for 15 minutes at 4° C. with gentle shaking After cell lysis, 25 μl cell lysate is transferred to a MesoScale plate coated with an antibody to pS6RP Ser240/244 (MesoScale Discovery K150DGD-3) or an antibody to pAkt Ser 473 (MesoScale Discovery K151DGD-3). Plates have been blocked before by incubation with 150 μl MesoScale Discovery Blocking Solution-A for 1 hour at room temperature followed by washing with 150 μl 1×Tris wash buffer per well. After the transfer of the cell lysate to the MSD plate, the pS6RP (or pAkt) protein is captured on the coated antibody by incubation at room temperature for 1 hour with gentle shaking. After the capture step the plate is washed three times with 150 μl of 1× Tris wash buffer per well. Then 25 μl detection antibody conjugated with a Sulfo-Tag is added and incubated for 1 hour at room temperature with gentle shaking. Subsequently the antibody solution is removed and the plate is washed 3 times with 150 μl 1×Tris wash buffer per well and 150 μl Read buffer is added. The plates are analysed on a MSD 2400 Plate Reader (MesoScale Discovery). Data analysis is performed using nonlinear regression for a sigmoidal dose-response with a variable slope.

T6 sequence (P78527 whole entry): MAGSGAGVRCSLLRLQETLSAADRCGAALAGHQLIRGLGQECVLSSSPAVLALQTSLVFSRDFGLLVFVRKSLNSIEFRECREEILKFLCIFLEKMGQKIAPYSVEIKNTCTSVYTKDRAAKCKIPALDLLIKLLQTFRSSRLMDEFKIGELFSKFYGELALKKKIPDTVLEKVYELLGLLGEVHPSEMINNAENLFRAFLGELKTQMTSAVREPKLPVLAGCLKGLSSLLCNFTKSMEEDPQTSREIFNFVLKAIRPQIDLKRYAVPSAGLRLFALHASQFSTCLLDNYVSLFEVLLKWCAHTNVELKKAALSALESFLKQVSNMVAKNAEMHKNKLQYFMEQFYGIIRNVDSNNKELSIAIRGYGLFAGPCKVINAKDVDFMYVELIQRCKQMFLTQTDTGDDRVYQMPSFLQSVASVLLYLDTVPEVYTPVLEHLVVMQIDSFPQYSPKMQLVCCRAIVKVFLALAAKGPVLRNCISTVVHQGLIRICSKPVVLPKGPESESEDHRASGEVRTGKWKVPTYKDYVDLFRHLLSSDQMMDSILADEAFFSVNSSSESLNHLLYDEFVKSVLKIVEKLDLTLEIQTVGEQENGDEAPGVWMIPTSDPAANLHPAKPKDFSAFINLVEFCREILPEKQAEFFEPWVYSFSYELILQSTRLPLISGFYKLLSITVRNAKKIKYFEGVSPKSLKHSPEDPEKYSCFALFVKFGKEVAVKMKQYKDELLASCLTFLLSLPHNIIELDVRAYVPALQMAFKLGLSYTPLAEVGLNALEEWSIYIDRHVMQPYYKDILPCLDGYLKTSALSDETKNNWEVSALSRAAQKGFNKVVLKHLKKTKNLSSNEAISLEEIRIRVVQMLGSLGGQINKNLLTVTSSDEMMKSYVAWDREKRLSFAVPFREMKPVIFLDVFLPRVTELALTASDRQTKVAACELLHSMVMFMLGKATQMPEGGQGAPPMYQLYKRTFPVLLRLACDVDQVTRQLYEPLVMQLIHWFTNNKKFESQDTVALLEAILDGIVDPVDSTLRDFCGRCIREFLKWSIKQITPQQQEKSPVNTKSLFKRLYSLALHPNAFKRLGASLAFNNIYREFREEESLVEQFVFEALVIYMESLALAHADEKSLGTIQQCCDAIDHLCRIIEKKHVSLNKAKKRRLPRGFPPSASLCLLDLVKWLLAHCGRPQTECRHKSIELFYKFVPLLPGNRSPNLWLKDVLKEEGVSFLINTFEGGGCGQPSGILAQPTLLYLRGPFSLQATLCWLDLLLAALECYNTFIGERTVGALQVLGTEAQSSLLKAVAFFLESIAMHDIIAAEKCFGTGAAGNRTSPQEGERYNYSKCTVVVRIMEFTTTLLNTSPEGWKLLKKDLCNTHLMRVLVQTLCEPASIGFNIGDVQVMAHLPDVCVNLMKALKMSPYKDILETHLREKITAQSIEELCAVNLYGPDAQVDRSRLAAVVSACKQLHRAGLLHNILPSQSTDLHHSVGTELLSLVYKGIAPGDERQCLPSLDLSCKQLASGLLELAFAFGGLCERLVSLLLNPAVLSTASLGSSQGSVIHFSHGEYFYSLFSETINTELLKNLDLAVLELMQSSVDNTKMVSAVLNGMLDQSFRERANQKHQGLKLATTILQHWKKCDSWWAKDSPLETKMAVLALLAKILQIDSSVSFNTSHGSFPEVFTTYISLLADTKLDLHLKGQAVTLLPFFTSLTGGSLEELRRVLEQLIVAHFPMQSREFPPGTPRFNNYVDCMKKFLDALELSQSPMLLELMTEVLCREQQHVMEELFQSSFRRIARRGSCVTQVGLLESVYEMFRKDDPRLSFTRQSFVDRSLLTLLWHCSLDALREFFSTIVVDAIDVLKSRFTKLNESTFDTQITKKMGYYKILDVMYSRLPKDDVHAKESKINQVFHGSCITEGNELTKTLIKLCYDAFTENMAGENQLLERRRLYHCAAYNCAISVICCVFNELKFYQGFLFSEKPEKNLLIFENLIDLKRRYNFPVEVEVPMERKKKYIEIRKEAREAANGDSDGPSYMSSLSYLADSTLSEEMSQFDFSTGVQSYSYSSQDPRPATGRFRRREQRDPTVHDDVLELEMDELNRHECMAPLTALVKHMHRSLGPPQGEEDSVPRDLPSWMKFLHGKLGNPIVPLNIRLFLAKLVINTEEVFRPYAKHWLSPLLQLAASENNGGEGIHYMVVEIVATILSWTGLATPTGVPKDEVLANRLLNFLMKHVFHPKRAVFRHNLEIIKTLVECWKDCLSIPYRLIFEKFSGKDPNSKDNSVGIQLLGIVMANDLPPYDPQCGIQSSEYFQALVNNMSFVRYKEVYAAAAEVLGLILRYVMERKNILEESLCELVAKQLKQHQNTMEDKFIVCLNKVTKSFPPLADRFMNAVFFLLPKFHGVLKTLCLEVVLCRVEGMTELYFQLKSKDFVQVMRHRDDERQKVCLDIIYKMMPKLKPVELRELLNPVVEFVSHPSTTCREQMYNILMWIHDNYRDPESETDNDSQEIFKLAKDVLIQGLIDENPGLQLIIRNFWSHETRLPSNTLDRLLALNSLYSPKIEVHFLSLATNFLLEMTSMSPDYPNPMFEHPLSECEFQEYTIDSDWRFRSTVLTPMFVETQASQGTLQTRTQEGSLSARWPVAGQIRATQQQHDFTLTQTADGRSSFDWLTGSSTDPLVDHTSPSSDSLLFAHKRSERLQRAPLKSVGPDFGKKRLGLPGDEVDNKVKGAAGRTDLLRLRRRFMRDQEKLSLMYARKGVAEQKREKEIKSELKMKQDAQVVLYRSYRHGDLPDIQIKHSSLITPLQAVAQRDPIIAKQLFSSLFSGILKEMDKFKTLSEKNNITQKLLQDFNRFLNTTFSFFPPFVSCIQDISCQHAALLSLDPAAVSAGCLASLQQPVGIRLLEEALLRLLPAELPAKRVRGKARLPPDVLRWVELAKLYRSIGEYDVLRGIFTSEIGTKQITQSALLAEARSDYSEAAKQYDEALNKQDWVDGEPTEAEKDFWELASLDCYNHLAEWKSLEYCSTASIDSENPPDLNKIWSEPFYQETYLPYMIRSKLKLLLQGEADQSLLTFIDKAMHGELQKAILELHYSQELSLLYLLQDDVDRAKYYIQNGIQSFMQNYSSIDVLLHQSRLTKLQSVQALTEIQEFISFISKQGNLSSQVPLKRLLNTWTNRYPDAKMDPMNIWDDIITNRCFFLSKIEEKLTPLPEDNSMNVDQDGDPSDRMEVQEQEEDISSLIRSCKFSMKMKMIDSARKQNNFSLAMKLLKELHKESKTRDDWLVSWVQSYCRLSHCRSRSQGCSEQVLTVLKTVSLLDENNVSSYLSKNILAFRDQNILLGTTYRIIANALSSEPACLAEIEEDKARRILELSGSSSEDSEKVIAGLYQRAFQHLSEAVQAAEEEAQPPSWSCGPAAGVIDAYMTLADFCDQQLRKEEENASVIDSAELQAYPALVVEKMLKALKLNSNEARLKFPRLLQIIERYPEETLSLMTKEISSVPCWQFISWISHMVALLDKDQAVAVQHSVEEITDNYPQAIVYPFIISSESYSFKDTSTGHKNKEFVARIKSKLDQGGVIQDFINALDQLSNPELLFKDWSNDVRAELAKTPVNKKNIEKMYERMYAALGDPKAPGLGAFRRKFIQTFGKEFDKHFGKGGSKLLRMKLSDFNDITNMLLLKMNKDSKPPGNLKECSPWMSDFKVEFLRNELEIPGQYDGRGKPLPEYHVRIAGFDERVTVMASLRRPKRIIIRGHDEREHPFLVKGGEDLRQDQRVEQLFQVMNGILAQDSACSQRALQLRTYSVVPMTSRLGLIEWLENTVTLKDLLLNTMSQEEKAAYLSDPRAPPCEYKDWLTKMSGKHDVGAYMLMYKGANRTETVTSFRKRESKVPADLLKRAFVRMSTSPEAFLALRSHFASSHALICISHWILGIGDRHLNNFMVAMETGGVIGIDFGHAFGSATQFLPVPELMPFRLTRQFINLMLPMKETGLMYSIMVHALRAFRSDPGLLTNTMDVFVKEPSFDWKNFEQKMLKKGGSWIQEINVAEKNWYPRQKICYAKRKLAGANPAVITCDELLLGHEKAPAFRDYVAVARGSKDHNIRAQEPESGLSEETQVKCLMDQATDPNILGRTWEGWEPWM

IC50 [1] | IC50 [2] | IC50 [3] | IC50 [4] | IC50 [5] | IC50 [6] | IC50 [7] | IC50 [8] | Structure (SMILES)
< 0.1 µM | > 10 µM | > 10 µM | > 10 µM | > 10 µM | > 10 µM | < 0.1 µM | < 0.1 µM | C[C@H]1COCCN1c1nc(-c2ccc(NC(=O)NC3CC3)cc2)nc(-c2ccccc2S(C)(=O)=O)n1 [Example 1, (S)-1-cyclopropyl-3-(4-(4-(3-methylmorpholino)-6-(2-(methylsulfonyl)phenyl)-1,3,5-triazin-2-yl)phenyl)urea]
< 0.1 µM | > 10 µM | > 10 µM | > 10 µM | > 10 µM | > 10 µM | < 0.1 µM | < 0.1 µM | C[C@H]1COCCN1c1nc(-c2ccc(NC(=O)NCCO)cc2)nc(-c2ccccc2S(C)(=O)=O)n1 [Example 4, (S)-1-(2-hydroxyethyl)-3-(4-(4-(3-methylmorpholino)-6-(2-(methylsulfonyl)phenyl)-1,3,5-triazin-2-yl)phenyl)urea]
0.1 to 1 µM | > 10 µM | > 10 µM | > 10 µM | > 10 µM | > 10 µM | < 0.1 µM | < 0.1 µM | C[C@H]1COCCN1c1nc(-c2ccc(NC(=O)NC3CC3)cc2)nc(-c2cc(F)ccc2S(C)(=O)=O)n1 [Example 5, (S)-1-cyclopropyl-3-(4-(4-(5-fluoro-2-(methylsulfonyl)phenyl)-6-(3-methylmorpholino)-1,3,5-triazin-2-yl)phenyl)urea]
< 0.1 µM | > 10 µM | > 10 µM | > 10 µM | > 10 µM | > 10 µM | 0.1 to 1 µM | < 0.1 µM | C[C@H]1COCCN1c1nc(-c2ccc(NC(=O)NCCO)cc2)nc(-c2cc(F)ccc2S(C)(=O)=O)n1 [Example 6, (S)-1-(4-(4-(5-fluoro-2-(methylsulfonyl)phenyl)-6-(3-methylmorpholino)-1,3,5-triazin-2-yl)phenyl)-3-(2-hydroxyethyl)urea]
< 0.1 µM | > 10 µM | > 10 µM | > 10 µM | > 10 µM | > 10 µM | < 0.1 µM | < 0.1 µM | C[C@H]1COCCN1c1nc(-c2ccc(NC(=O)NCCF)cc2)nc(-c2ccccc2S(C)(=O)=O)n1 [Example 7, (S)-1-(2-fluoroethyl)-3-(4-(4-(3-methylmorpholino)-6-(2-(methylsulfonyl)phenyl)-1,3,5-triazin-2-yl)phenyl)urea]
< 0.1 µM | > 10 µM | > 10 µM | > 10 µM | > 10 µM | > 10 µM | < 0.1 µM | < 0.1 µM | C[C@H]1COCCN1c1nc(-c2ccc(NC(=O)NCC(F)F)cc2)nc(-c2ccccc2S(C)(=O)=O)n1 [Example 8, (S)-1-(2,2-difluoroethyl)-3-(4-(4-(3-methylmorpholin)-6-(2-(methylsulfonyl)phenyl)-1,3,5-triazin-2-yl)phenyl)urea]
< 0.1 µM | > 10 µM | > 10 µM | > 10 µM | > 10 µM | > 10 µM | < 0.1 µM | < 0.1 µM | CCNC(=O)Nc1ccc(-c2nc(-c3ccccc3S(C)(=O)=O)nc(N3CCOC[C@@H]3C)n2)cc1 [Example 10, (S)-1-ethyl-3-(4-(4-(3-methylmorpholino)-6-(2-(methylsulfonyl)phenyl)-1,3,5-triazin-2-yl)phenyl)urea]
0.1 to 1 µM | > 10 µM | > 10 µM | > 10 µM | > 10 µM | > 10 µM | < 0.1 µM | < 0.1 µM | CNC(=O)Nc1ccc(-c2nc(-c3ccccc3S(C)(=O)=O)nc(N3CCOC[C@@H]3C)n2)cc1 [Example 14, (S)-1-methyl-3-(4-(4-(3-methylmorpholino)-6-(2-(methylsulfonyl)phenyl)-1,3,5-triazin-2-yl)phenyl)urea]
< 0.1 µM | > 10 µM | 1 to 10 µM | > 10 µM | 1 to 10 µM | > 10 µM | < 0.1 µM | < 0.1 µM | C[C@H]1COCCN1c1nc(-c2ccc(NC(=O)NC3CC3)cc2)nc(-c2cccnc2S(C)(=O)=O)n1 [Example 24, (S)-1-cyclopropyl-3-(4-(4-(3-methylmorpholino)-6-(2-(methylsulfonyl)pyridin-3-yl)-1,3,5-triazin-2-yl)phenyl)urea]
